# Data: ChEMBL document CHEMBL4507277
# Assays:
# [1] = target: Citron Rho-interacting kinase (Homo sapiens) (UniProt O14578); details: Compound concentration 1000.0 nM
# [2] = target: SRSF protein kinase 2 (Homo sapiens) (UniProt P78362); details: Compound concentration 1000.0 nM
# [3] = target: Inhibitor of nuclear factor kappa-B kinase subunit alpha (Homo sapiens) (UniProt O15111); details: Compound concentration 1000.0 nM
# [4] = target: Calcium/calmodulin-dependent protein kinase type II subunit beta (Homo sapiens) (UniProt Q13554); details: Compound concentration 1000.0 nM
# [5] = target: Mitogen-activated protein kinase 13 (Homo sapiens) (UniProt O15264); details: Compound concentration 1000.0 nM
# [6] = target: Serine/threonine-protein kinase pim-2 (Homo sapiens) (UniProt Q9P1W9); details: Compound concentration 1000.0 nM
# [7] = target: Alpha-2B adrenergic receptor (Homo sapiens) (UniProt P18089); details: Compound concentration 10.0 uM
# [8] = target: Calcium/calmodulin-dependent protein kinase kinase 1 (Homo sapiens) (UniProt Q8N5S9); details: Compound concentration 1000.0 nM
# [9] = target: Cyclin-dependent kinase-like 2 (Homo sapiens) (UniProt Q92772); details: Compound concentration 1000.0 nM
# [10] = tested on: Epidermal growth factor receptor (Homo sapiens), P00533 [G719S]; details: Compound concentration 1000.0 nM
# [11] = target: Cyclin-dependent kinase 18 (Homo sapiens) (UniProt Q07002); details: Compound concentration 1000.0 nM
# [12] = tested on: Tyrosine-protein kinase ABL1 (Homo sapiens), P00519 [T315I]; details: Compound concentration 1000.0 nM
# [13] = target: Glycogen synthase kinase-3 alpha (Homo sapiens) (UniProt P49840); details: Compound concentration 1000.0 nM
# [14] = target: MAP/microtubule affinity-regulating kinase 4 (Homo sapiens) (UniProt Q96L34); details: Compound concentration 1000.0 nM
# [15] = target: Serine/threonine-protein kinase D2 (Homo sapiens) (UniProt Q9BZL6); details: Compound concentration 1000.0 nM
# [16] = target: cAMP-dependent protein kinase catalytic subunit alpha (Homo sapiens) (UniProt P17612); details: Compound concentration 1000.0 nM
# [17] = target: Inhibitor of nuclear factor kappa-B kinase subunit beta (Homo sapiens) (UniProt O14920); details: Compound concentration 1000.0 nM
# [18] = target: Mitogen-activated protein kinase kinase kinase 5 (Homo sapiens) (UniProt Q99683); details: Compound concentration 1000.0 nM
# [19] = target: Ephrin type-B receptor 6 (Homo sapiens) (UniProt O15197); details: Compound concentration 1000.0 nM
# [20] = target: Rho-associated protein kinase 2 (Homo sapiens) (UniProt O75116); details: Compound concentration 1000.0 nM
# [21] = target: Cyclin-dependent kinase 2 homolog (Plasmodium falciparum (isolate 3D7)) (UniProt P61075); details: Compound concentration 1000.0 nM
# [22] = target: Serine/threonine-protein kinase 17A (Homo sapiens) (UniProt Q9UEE5); details: Compound concentration 1000.0 nM
# [23] = target: Homeodomain-interacting protein kinase 1 (Homo sapiens) (UniProt Q86Z02); details: Compound concentration 1000.0 nM
# [24] = target: Insulin-like growth factor 1 receptor (Homo sapiens) (UniProt P08069); details: Compound concentration 1000.0 nM
# [25] = target: Serine/threonine-protein kinase MARK1 (Homo sapiens) (UniProt Q9P0L2); details: Compound concentration 1000.0 nM
# [26] = target: Serine/threonine-protein kinase Nek7 (Homo sapiens) (UniProt Q8TDX7); details: Compound concentration 1000.0 nM
# [27] = target: Cyclin-dependent kinase 11B (Homo sapiens) (UniProt P21127); details: Compound concentration 1000.0 nM
# [28] = target: Mitogen-activated protein kinase kinase kinase 2 (Homo sapiens) (UniProt Q9Y2U5); details: Compound concentration 1000.0 nM
# [29] = target: Tyrosine-protein kinase Fes/Fps (Homo sapiens) (UniProt P07332); details: Compound concentration 1000.0 nM
# [30] = target: Phosphatidylinositol 5-phosphate 4-kinase type-2 beta (Homo sapiens) (UniProt P78356); details: Compound concentration 1000.0 nM
# [31] = target: Receptor-interacting serine/threonine-protein kinase 4 (Homo sapiens) (UniProt P57078); details: Compound concentration 1000.0 nM
# [32] = tested on: eIF-2-alpha kinase GCN2 (Homo sapiens), Q9P2K8 [S808G]; details: Compound concentration 1000.0 nM
# [33] = target: STE20/SPS1-related proline-alanine-rich protein kinase (Homo sapiens) (UniProt Q9UEW8); details: Compound concentration 1000.0 nM
# [34] = target: Phosphatidylinositol 4,5-bisphosphate 3-kinase catalytic subunit beta isoform (Homo sapiens) (UniProt P42338); details: Compound concentration 1000.0 nM
# [35] = target: Tyrosine-protein kinase JAK1 (Homo sapiens) (UniProt P23458); details: Compound concentration 1000.0 nM
# [36] = tested on: Phosphatidylinositol 4,5-bisphosphate 3-kinase catalytic subunit alpha isoform (Homo sapiens), P42336 [M1043I]; details: Compound concentration 1000.0 nM
# [37] = target: MAP/microtubule affinity-regulating kinase 3 (Homo sapiens) (UniProt P27448); details: Compound concentration 1000.0 nM
# [38] = target: Serine/threonine-protein kinase 38 (Homo sapiens) (UniProt Q15208); details: Compound concentration 1000.0 nM
# [39] = target: Serine/threonine-protein kinase 4 (Homo sapiens) (UniProt Q13043); details: Compound concentration 1000.0 nM
# [40] = target: Tyrosine-protein kinase receptor Tie-1 (Homo sapiens) (UniProt P35590); details: Compound concentration 1000.0 nM
# [41] = target: Serine/threonine-protein kinase WNK2 (Homo sapiens) (UniProt Q9Y3S1); details: Compound concentration 1000.0 nM
# [42] = tested on: Phosphatidylinositol 4,5-bisphosphate 3-kinase catalytic subunit alpha isoform (Homo sapiens), P42336 [Q546K]; details: Compound concentration 1000.0 nM
# [43] = tested on: Phosphatidylinositol 4,5-bisphosphate 3-kinase catalytic subunit alpha isoform (Homo sapiens), P42336 [C420R]; details: Compound concentration 1000.0 nM
# [44] = target: Ephrin type-B receptor 3 (Homo sapiens) (UniProt P54753); details: Compound concentration 1000.0 nM
# Sequence of Serine/threonine-protein kinase pim-2 (Homo sapiens) (Q9P1W9 whole entry, looked up): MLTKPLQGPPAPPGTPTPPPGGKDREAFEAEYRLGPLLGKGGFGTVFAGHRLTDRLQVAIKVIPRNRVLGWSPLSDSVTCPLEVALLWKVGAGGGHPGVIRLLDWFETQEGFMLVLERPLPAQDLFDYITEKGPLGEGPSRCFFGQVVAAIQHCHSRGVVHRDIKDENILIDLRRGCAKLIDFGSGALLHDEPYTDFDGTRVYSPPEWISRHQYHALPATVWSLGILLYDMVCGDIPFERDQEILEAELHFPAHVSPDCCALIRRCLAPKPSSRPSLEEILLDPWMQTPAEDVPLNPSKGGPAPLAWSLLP
# Sequence of Serine/threonine-protein kinase 4 (Homo sapiens) (Q13043 whole entry): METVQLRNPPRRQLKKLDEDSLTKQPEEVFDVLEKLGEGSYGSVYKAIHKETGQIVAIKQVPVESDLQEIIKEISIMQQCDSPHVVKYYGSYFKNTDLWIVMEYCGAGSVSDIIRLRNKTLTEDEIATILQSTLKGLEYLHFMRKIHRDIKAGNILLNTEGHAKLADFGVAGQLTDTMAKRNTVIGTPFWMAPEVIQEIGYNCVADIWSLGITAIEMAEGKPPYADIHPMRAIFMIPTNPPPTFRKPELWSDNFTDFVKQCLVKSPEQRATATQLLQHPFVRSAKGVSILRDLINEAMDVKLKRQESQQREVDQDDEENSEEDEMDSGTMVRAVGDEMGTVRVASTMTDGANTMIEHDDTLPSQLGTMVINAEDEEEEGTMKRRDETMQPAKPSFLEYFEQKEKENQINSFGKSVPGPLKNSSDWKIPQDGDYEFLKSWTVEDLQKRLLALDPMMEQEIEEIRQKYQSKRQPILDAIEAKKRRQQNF
# Sequence of Inhibitor of nuclear factor kappa-B kinase subunit alpha (Homo sapiens) (O15111 whole entry): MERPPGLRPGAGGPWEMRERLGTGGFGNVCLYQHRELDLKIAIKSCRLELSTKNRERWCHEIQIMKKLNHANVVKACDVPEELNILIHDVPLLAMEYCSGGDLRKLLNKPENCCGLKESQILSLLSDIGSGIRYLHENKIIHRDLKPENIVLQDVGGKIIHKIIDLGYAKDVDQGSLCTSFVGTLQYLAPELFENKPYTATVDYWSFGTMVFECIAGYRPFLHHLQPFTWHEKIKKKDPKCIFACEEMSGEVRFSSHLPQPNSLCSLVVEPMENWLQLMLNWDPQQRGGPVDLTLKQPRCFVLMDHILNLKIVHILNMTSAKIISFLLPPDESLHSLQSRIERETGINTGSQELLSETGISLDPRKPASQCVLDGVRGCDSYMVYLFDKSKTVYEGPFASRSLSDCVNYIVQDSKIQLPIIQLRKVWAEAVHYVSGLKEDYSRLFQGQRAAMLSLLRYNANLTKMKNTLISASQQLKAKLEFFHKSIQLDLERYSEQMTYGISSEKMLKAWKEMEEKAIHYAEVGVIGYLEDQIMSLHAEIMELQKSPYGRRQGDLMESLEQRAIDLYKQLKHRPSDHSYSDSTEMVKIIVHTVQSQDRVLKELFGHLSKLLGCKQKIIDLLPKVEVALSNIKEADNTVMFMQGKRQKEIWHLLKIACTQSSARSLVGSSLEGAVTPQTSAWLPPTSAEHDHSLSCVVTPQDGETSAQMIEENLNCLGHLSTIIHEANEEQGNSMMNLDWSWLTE
# Sequence of Serine/threonine-protein kinase WNK2 (Homo sapiens) (Q9Y3S1 whole entry, canonical isoform): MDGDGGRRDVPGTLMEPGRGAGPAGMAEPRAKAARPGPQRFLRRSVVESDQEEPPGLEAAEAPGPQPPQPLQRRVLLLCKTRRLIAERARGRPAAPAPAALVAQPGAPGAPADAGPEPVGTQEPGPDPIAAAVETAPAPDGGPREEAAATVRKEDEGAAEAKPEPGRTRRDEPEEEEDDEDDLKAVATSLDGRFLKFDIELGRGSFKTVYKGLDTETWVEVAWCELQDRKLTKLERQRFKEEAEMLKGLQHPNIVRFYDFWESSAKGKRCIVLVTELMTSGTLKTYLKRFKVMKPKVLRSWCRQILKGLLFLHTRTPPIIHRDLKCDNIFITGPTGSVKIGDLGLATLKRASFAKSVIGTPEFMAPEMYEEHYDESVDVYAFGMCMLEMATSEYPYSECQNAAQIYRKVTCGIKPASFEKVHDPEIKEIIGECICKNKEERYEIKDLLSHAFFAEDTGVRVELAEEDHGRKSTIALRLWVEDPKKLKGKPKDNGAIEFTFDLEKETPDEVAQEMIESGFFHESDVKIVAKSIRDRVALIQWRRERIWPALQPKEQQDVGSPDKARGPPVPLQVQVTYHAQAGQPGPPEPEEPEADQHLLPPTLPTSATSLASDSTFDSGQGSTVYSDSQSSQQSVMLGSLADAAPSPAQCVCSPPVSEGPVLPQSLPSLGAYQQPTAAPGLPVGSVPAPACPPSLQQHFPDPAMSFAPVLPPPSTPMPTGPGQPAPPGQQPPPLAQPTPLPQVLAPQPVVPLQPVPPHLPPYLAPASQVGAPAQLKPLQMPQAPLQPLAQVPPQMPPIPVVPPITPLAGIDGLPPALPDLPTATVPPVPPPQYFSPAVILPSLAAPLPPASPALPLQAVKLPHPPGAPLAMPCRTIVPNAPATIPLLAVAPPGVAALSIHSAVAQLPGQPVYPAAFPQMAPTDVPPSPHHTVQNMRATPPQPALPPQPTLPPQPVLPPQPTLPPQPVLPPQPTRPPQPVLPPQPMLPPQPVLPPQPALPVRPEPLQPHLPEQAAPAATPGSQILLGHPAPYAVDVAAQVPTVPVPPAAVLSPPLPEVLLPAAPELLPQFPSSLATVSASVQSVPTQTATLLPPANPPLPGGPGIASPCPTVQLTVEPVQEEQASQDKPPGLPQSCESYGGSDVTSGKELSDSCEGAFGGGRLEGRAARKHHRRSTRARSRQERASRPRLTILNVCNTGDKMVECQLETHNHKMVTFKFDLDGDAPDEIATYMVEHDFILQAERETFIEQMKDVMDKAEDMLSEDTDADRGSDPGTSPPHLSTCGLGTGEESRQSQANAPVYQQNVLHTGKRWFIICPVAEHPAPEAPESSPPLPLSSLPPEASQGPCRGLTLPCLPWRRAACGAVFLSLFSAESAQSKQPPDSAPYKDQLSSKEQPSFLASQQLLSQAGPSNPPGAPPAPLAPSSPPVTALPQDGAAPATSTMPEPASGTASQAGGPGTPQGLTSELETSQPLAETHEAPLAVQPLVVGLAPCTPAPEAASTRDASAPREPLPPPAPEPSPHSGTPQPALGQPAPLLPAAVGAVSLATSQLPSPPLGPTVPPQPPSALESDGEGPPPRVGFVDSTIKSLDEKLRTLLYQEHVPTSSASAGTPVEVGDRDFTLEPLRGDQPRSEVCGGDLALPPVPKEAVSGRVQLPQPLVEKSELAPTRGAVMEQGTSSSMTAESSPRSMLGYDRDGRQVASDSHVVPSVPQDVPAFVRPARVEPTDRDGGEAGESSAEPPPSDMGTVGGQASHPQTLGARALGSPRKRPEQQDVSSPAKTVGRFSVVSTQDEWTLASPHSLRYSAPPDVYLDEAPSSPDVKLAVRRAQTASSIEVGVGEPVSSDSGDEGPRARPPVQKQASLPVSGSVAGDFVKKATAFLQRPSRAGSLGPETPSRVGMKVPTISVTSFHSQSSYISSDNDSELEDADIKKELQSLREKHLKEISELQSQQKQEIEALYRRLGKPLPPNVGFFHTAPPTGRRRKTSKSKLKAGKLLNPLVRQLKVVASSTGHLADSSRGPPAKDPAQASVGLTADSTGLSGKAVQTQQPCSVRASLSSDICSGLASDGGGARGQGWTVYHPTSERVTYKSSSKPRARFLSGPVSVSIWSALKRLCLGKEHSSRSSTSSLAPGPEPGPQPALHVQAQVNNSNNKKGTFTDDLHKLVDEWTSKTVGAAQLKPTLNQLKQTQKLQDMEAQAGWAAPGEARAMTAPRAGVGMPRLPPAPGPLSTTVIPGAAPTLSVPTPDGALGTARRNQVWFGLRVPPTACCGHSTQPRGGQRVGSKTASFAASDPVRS
# Sequence of Mitogen-activated protein kinase 13 (Homo sapiens) (O15264 whole entry): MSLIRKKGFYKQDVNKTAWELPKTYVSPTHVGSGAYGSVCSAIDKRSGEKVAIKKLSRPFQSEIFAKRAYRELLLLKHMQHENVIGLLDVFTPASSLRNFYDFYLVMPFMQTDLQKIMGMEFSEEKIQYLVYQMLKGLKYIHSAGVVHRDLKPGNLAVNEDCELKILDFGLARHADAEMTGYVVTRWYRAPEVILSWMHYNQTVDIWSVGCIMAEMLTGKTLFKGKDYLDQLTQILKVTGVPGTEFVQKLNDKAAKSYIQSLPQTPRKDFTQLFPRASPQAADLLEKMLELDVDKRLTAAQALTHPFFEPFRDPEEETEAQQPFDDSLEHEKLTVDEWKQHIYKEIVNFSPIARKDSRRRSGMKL
# Sequence of Cyclin-dependent kinase-like 2 (Homo sapiens) (Q92772 whole entry): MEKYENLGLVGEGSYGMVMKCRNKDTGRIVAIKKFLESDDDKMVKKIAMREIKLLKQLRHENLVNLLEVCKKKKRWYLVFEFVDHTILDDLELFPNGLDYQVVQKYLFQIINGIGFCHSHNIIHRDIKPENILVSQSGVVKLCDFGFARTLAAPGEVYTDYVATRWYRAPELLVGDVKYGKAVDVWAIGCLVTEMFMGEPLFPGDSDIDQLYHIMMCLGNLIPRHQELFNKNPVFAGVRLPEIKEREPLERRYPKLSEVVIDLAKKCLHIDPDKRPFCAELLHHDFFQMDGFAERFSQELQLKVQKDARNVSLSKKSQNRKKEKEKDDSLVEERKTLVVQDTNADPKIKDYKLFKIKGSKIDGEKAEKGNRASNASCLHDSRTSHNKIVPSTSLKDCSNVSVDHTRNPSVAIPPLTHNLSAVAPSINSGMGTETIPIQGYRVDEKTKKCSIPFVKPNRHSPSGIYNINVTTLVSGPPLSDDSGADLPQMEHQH
# Sequence of Serine/threonine-protein kinase Nek7 (Homo sapiens) (Q8TDX7 whole entry, looked up): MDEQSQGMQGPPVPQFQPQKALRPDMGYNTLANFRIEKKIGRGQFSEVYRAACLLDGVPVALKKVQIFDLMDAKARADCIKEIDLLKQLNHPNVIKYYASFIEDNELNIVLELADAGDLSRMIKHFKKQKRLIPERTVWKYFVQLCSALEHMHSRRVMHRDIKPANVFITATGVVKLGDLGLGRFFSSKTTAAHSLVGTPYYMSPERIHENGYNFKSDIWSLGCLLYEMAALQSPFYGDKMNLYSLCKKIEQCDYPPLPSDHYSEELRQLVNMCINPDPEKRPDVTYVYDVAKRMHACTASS
structure (smiles),measurement,setting,value
CCS(=O)(=O)c1cc2cc(C[C@@](O)(CC(C)(C)c3ccc(F)cc3C(N)=O)C(F)(F)F)[nH]c2cn1,residual activity,[1],96%
same,residual activity,[2],70%
same,residual activity,[3],95%
same,residual activity,[4],100%
same,residual activity,[5],96%
same,residual activity,[6],99%
same,inhibition,[7],6.5%
same,residual activity,[8],87%
same,residual activity,[9],90%
same,residual activity,[10],100%
same,residual activity,[11],100%
same,residual activity,[12],67%
same,residual activity,[13],100%
same,residual activity,[14],100%
same,residual activity,[15],89%
same,residual activity,[16],100%
same,residual activity,[17],83%
same,residual activity,[18],100%
same,residual activity,[19],100%
same,residual activity,[20],76%
same,residual activity,[21],100%
same,residual activity,[22],80%
same,residual activity,[23],90%
same,residual activity,[24],100%
same,residual activity,[25],100%
same,residual activity,[26],95%
same,residual activity,[27],77%
same,residual activity,[28],100%
same,residual activity,[29],100%
same,residual activity,[30],85%
same,residual activity,[31],100%
same,residual activity,[32],94%
same,residual activity,[33],84%
same,residual activity,[34],87%
same,residual activity,[35],89%
same,residual activity,[36],99%
same,residual activity,[37],100%
same,residual activity,[38],76%
same,residual activity,[39],100%
same,residual activity,[40],66%
same,residual activity,[41],46%
same,residual activity,[42],69%
same,residual activity,[43],89%
same,residual activity,[44],92%
CCS(=O)(=O)c1cc2cc(C[C@](O)(CC(C)(C)c3ccc(F)cc3C(N)=O)C(F)(F)F)[nH]c2cn1,residual activity,[1],100%
same,residual activity,[2],82%
same,residual activity,[3],100%
same,residual activity,[4],97%
same,residual activity,[5],100%
same,residual activity,[6],100%
same,inhibition,[7],24.7%
same,residual activity,[8],100%
same,residual activity,[9],93%
same,residual activity,[10],100%
same,residual activity,[11],100%
same,residual activity,[12],100%
same,residual activity,[13],100%
same,residual activity,[14],100%
same,residual activity,[15],96%
same,residual activity,[16],100%
same,residual activity,[17],91%
same,residual activity,[18],100%
same,residual activity,[19],100%
same,residual activity,[20],100%
same,residual activity,[21],100%
same,residual activity,[22],80%
same,residual activity,[23],94%
same,residual activity,[24],100%
same,residual activity,[25],100%
same,residual activity,[26],100%
same,residual activity,[27],100%
same,residual activity,[28],100%
same,residual activity,[29],100%
same,residual activity,[30],96%
same,residual activity,[31],93%
same,residual activity,[32],89%
same,residual activity,[33],100%
same,residual activity,[34],98%
same,residual activity,[35],96%
same,residual activity,[36],88%
same,residual activity,[37],100%
same,residual activity,[38],91%
same,residual activity,[39],100%
same,residual activity,[40],100%
same,residual activity,[41],100%
same,residual activity,[42],80%
same,residual activity,[43],95%
same,residual activity,[44],100%
